The text below walks through data of US20100068147A1, “DENGUE DIAGNOSIS AND TREATMENT” (Agency for Science , Technology and Research, priority 2006, published 2010).

Where a SMILES comes first, the peptide text is derived from it. [ ]: non-standard residue; d: D form. The star is where a group is joined. Nle = CCCC[C@H](N)C(=O)O; Nva = CCC[C@H](N)C(=O)O; Cbz = O=C(OCc1ccccc1)*

What is called Ki is the equilibrium dissociation constant of an inhibitor or competing ligand from its target. By IC50 is commonly meant the concentration that inhibits the measured activity by half.

Assay [1] concerns the target calpain I, calpain II, cathepsin B, and cathepsin L. As to conditions: one range for the four enzymes; cited from earlier work.
Assay [2] addresses T1, calpain I (Homo sapiens, UniProt P07384).
T1 sequence (P07384 1-714): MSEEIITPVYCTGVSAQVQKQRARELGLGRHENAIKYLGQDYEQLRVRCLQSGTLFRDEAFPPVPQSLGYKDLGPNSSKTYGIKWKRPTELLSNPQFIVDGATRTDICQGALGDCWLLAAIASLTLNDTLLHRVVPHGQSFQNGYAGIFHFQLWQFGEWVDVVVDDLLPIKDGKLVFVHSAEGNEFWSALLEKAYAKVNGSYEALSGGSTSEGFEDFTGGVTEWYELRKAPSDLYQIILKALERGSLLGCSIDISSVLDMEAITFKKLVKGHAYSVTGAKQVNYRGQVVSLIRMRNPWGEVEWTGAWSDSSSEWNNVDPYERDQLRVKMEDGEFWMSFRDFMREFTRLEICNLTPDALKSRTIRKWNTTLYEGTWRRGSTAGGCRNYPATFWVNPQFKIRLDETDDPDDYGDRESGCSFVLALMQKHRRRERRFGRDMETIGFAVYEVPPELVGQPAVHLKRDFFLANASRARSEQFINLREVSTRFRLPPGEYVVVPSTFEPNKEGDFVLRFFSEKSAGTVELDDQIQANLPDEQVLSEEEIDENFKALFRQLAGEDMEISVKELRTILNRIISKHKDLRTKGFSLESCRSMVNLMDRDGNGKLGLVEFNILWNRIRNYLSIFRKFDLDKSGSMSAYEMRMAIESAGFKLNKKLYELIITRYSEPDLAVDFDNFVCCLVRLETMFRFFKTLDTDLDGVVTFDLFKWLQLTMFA
T1 sequence (P04632 1-268 partner): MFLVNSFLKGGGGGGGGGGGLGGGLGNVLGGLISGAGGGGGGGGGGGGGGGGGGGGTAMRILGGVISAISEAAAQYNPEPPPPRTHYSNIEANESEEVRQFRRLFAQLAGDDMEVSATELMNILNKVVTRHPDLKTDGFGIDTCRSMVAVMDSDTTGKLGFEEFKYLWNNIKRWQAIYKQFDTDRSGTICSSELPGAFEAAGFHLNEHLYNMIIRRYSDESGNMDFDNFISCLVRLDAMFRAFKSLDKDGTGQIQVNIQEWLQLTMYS
As to conditions: cited from earlier work.

Assay [3] concerns the target T2, calpain II (Homo sapiens, UniProt P17655).
T2 sequence (P17655 1-700): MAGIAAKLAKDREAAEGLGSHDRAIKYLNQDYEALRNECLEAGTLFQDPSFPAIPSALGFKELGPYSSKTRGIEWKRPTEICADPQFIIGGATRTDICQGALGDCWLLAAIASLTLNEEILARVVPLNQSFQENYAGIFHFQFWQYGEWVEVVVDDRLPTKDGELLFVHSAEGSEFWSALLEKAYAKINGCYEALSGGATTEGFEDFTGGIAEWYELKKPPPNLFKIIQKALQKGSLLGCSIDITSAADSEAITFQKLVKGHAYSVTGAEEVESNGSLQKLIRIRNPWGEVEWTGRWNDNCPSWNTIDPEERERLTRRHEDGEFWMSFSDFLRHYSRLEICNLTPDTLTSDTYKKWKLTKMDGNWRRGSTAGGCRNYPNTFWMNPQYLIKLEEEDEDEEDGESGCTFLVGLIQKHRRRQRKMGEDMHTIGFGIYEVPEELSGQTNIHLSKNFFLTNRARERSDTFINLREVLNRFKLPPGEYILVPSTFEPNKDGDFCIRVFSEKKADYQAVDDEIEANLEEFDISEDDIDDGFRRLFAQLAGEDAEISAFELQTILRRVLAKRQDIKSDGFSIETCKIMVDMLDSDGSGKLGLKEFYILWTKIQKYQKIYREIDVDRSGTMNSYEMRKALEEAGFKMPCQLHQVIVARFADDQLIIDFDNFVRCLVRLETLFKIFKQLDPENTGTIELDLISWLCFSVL
T2 sequence (P04632 1-268 partner): T1 sequence (P04632 1-268 partner)
As to conditions: cited from earlier work.

The test system of assay [4] is dengue virus TSV01. Put plainly: Plaque assay of supernatants of HepG2 cells infected with dengue virus TSV01 in the presence of ubiquitin-proteasome inhibitors. In kind it is cell-based, dengue virus serotype 2. As to conditions: for virus replication in the HepG2 cell line by plaque assay of the cell culture supernatants: FIG. 4A, two days after infection, MG-132 0.4 and 0.6 μM, ALLN 10 and 15 μM, MOI 10, vs DMSO alone; for virus replication in the HepG2 cell line by plaque assay of the cell culture supernatants / virus replication by plaque assay: 2 hrs prior to infection; for virus replication by plaque assay: FIG. 7G, HepG2, MG-132 0.04 and 0.4 μM, ALLN 1 and 10 μM, MOI 10, 48 hrs. As to the method: The HepG2 cell line is infected with TSV01, a serotype 2 dengue virus (Genbank AY037116; McBride and Vasudevan, 1995), and cells harvested over a succession of time points up to three days post-infection.
In a second experiment we applied specific compounds to our in vitro experiment (described above) that are known to alter the function of these (and other) genes in this pathway (Table E1 below).
HepG2 cells (ATCC) are treated with proteasome inhibitors prior to infection with dengue virus. […]
HepG2 cells are cultured ON in 24 well plates. […]
Cell culture supernatants are collected and assayed for dengue virus by plaque assay. Plaque forming units per ml are expressed as the mean percentage of the highest number of pfu/ml (DMSO alone)±SEM, (n=3). Cytotoxicity is measured using FDA and results are expressed as the mean percentage compared to DMSO alone±SEM, (n=3). “*” indicates p<0.05 and “**”indicates p<0.005 by students t-test comparing each treatment to DMSO alone.
The type 2 dengue virus strain TSV01 is obtained from an outbreak in Townsville, Australia (McBride and Vasudevan 1995) (GenBank, accession number AY037116). TSV01 is cultured in the C6/36 cell line (from the Aedes albopictus mosquito) with virus added to cells in a T175 flask (MOI 0.01) and incubated for 1 hr at 28° C. with brief mixing every 20 min. Media is removed and cells washed in fresh media then media with 5% FBS added and cells incubated for 5 days at 28° C. Cell culture supernatants are removed and centrifuged at 1000×g for 10 min at 4° C. then pooled and stored in aliquots at −80° C. Heat-inactivated virus is prepared by incubating virus samples at 55° C. for 1 hr, with heat-inactivation confirmed by plaque assay.
For plaque assay, BHK-21 cells are cultured ON in 24 well plates before media is removed and serial dilutions (10-fold) of cell culture supernatants added to individual wells. Plates are incubated for 1 hr before media is aspirated and replaced with 0.5 ml of 0.8% methyl-cellulose medium (with 2% FBS). Plates are then incubated for 5 days before the media is removed and cells fixed in 4% formaldehyde for 20 min then rinsed in water and stained with crystal violent for 20 min and rinsed again. Plaques are counted manually and concentrations of plaque forming units per ml (pfu/ml) of the sample cell culture supernatant calculated.

For assay [5], the target named is cathepsin L (Homo sapiens, UniProt P07711). As to conditions: cited from earlier work.
The target in assay [6] is proteasome. As to conditions: cited from earlier work.
For assay [7], the target named is 26S proteasome. As to conditions: cited from earlier work.
Assay [8] concerns the target 20S proteasome. As to conditions: cited from earlier work.
In assay [9] the test system is 26S complex. As to conditions: cited from earlier work.
The subject of assay [10] is NF-kB activation. As to conditions: cited from earlier work.
For assay [11], the target named is chymotrypsin-like activity (Homo sapiens, UniProt P28074). As to conditions: cited from earlier work.

cathepsin L, sequence (P07711 114-333, species assumed): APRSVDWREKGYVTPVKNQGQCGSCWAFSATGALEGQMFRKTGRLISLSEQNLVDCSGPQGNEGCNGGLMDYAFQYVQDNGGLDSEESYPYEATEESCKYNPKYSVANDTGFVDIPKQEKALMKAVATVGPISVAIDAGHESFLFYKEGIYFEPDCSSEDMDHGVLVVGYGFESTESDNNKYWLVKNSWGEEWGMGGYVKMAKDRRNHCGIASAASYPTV

`CCCC[C@@H](C=O)NC(=O)[C@H](CC(C)C)NC(=O)[C@H](CC(C)C)NC(C)=O` [ALLN, N-Acetyl-Leu-Leu-Nle-CHO] (Ac-Leu-Leu-[Nle]-aldehyde): the Ki in [1] was 150 to 500 nM; in [2], 190 nM; in assay [3], 220 nM; in [5], 0.5 nM; in assay [6], 6000 nM. Moreover, the “virus replication in the HepG2 cell line by plaque assay of the cell culture supernatants” value in assay [4] is given as “significantly reduced”. For the same molecule, in [4], the “virus replication by plaque assay” value is “significantly and consistently reduced”.
Take `CSCC[C@@H](C=O)NC(=O)[C@H](CC(C)C)NC(=O)[C@H](CC(C)C)NC(C)=O` [Calpain Inhibitor II, Ac-Leu-Leu-Methional] (Ac-Leu-Leu-Met-aldehyde): in assay [1], the Ki was 120 to 600 nM. Also, in assay [6], the “inhibition of proteasome activity” value is listed as “does not”.
Turning to `C[C@@H]1C[C@H]2[C@@H]3CCC4=CC(=O)C=C[C@]4(C)[C@@]3(F)[C@@H](O)C[C@]2(C)[C@@]1(O)C(=O)CO` [Dexamethasone, dexamethasone], the “effect on viral replication” value in [4] (HepG2 infection model, data not shown) was “no effect”.
As for `CCC[C@@H](C=O)NC(=O)[C@H](CC(C)C)NC(=O)[C@H](CC(C)C)NC(=O)OCc1ccccc1` [MG-115, Z-Leu-Leu-Norvalinal] (Cbz-Leu-Leu-[Nva]-aldehyde), the Ki in assay [7] was 35 nM; in assay [8] it was 21 nM.
Consider `CC(C)C[C@@H](C=O)NC(=O)[C@H](CC(C)C)NC(=O)[C@H](CC(C)C)NC(=O)OCc1ccccc1` [MG-132, Carbobenzoxy-L-leucyl-L-leucyl-L-leucinal] (Cbz-Leu-Leu-Leu-aldehyde), for which the “effective concentrations, reduction of degradation of ubiquitin-conjugated proteins” value in assay [9] is “micromolar concentrations. Sequence: Z-Leu-”. Further, the IC50 in [10] is 3000 nM. In addition, in [4], the “virus replication in the HepG2 cell line by plaque assay of the cell culture supernatants” value was “significantly reduced”; the “virus replication by plaque assay” value is “significantly and consistently reduced”. Further, in assay [6], the Ki was 4 nM.
Turning to `CC(C)C[C@H](NC(=O)OCc1ccccc1)C(=O)N[C@@H](CC(C)C)C(=O)N[C@H](C=O)Cc1ccccc1` [Proteasome Inhibitor II, Z-Leu-Leu-Phenylalaninal] (Cbz-Leu-Leu-Phe-aldehyde), the Ki in assay [11] is 460 nM.
For `CC(C)[C@H](O)[C@@]12NC(=O)[C@H](C)[C@@H]1OC2=O` [clasto-Lactacystin β-Lactone], the “sensitivity relative to its precursor, lactacystin” value in assay [8] (in vitro) is on record as ~10-fold more sensitive than its precursor,.
